Patent US7189717B2, “Medicinal compositions promoting bowel movement” (Eisai Co., Ltd., priority 2000, dated 2007)
Like-named read-outs stand apart in the source and are kept apart here.

Legend:
[1] = system: rat distal colon longitudinal muscles; settings: cited from earlier work; for Relaxation of Carbachol-contracted muscles: agonist added at 0.1 to 30 μM
[2] = system: guinea pig distal colon longitudinal muscles; settings: cited from earlier work; for pA2 value of the antagonistic action on the relaxing action of NECA: electrical stimulation
[3] = system: guinea pig colon longitudinal muscles; settings: 100 nM; cited from earlier work
[4] = system: guinea pig distal colon longitudinal muscles; settings: KCl + tetrodotoxin, cited from earlier work
SD IGS rats [5] = experiment: Defecation-promoting action in rat, number of fecal pellets (Test Example 2); type: in vivo; settings: for The number of fecal pellets/3 rats: Test Example 2
Description: (§1) SD IGS rats (6-weeks-old, from Charles River) were placed in cages (3 animals/cage) and preliminarily allowed food and water ad libitum and raised for 1 week. On the day of the experiment, their weight was measured, a water-absorbing sheet was placed below each cage, and the animals were fasted but allowed water ad libitum throughout the experiment. Three hours after fasting was initiated, the fecal pellets were recovered from each cage and observed for abnormality before the experiment, and then the compound suspended or dissolved in 0.5% (W/V) methyl cellulose (MC) was orally administered into each rat in a dose of 5 ml/kg. On one hand, 0.5% (W/V) MC only was orally given to the control group. After administering the compound, the rats were returned to the cage provided with a new water-absorbing sheet of known weight, and 180 minutes after the administration, the fecal pellets on the water-absorbing sheet were recovered from each cage, and the external appearance was observed, and the number of fecal pellets was counted. The number of fecal pellets is expressed per each cage (Table 4). After the fecal pellets were recovered, the water-absorbing sheet was weighed, and the weight determined by subtracting the initial weight of the water-adsorbing sheet from the weight after the experiment was regarded as the volume of urine and expressed as the volume of urine per 100 g of the body weight (Table 4).

[6] = Urine volume in rat (Test Example 2); type: in vivo; settings: rats, oral, Table 4
Description: as §1, with “The number of fecal pellets is expressed per each cage (Table 4).” left out

SD IGS rats [7] = experiment: Contribution of inhibition of adenosine A2b receptor to defecation-promoting action (Test Example 3); type: in vivo, rat
Description: as §1, with “The number of fecal pellets is expressed per each cage (Table 4).” left out, “4). […]” for “4).”

SD IGS rats [8] = experiment: Evaluation of defecation-promoting action (Table 10); type: in vivo, rat; settings: 180 minutes, n = 6 cages/group
Description: That is, SD IGS rats (6-to 7-weeks-old, from Charles River) were placed in cages (3 animals/cage) and preliminarily allowed food and water ad libitum and raised for 1 week. On the day of the experiment, their weight was measured, a water-absorbing sheet was placed below each cage, and the animals were fasted but allowed water ad libitum throughout the experiment. Thee hours after fasting was initiated, the fecal pellets were recovered from each cage and observed for abnormality before the experiment, and then the compound suspended in 0.5% (w/v) methyl cellulose (MC) was orally administered in a dose of 5 ml/kg. On one hand, 0.5% (w/v) MC only was orally given to the control group. After administration of the compound, the rats were returned to the cage provided with a new water-absorbing sheet, and 180 minutes after the administration, the fecal pellets on the water-absorbing sheet were recovered from each cage, and the external appearance was observed, and the number of fecal pellets was counted. The number of fecal pellets is expressed per each cage.

OC[C@H]1O[C@@H](n2cnc3c(NC4CCCC4)ncnc32)[C@H](O)[C@@H]1O [CPA]
Relaxation of Carbachol-contracted muscles [1]: relaxation was observed | Relaxation of muscles contracted by electrical stimulation [2]: relaxation was observed | Relaxing action on contraction stimulated by acetylcholine [3]: did not exhibit a relaxing action

CCNC(=O)[C@H]1O[C@@H](n2cnc3c(N)ncnc32)[C@H](O)[C@@H]1O [NECA, 5′-N-ethylcarboxyamide adenosine]
Relaxation of Carbachol-contracted muscles [1]: relaxation was observed | Relaxation of muscles contracted by electrical stimulation [2]: relaxation was observed | Relaxing action on contraction stimulated by acetylcholine [3]: did not exhibit a relaxing action

CCNC(=O)[C@H]1O[C@@H](n2cnc3c(N)nc(NCCc4ccc(CCC(=O)O)cc4)nc32)[C@H](O)[C@@H]1O [CGS21680, 2-p-[2-carboxyethyl]phenetylamino-5′-N-ethylarboxyamide adenosine]
Antagonism of the relaxing action of NECA and CPA ([1]; 10 μM): not antagonized | Relaxation of muscles contracted by electrical stimulation [2]: very weak | Relaxing action ([4]; 1 μM): did not act

CCCn1c(=O)c2[nH]c(C3CCCC3)nc2n(CCC)c1=O [DPCPX]
Antagonism of the relaxing action of NECA and CPA ([1]; 1 μM): antagonized | pA2 value of the antagonistic action on the relaxing action of NECA [2]: 8.8 | Antagonistic action on the relaxing action ([4]; 1 nM): did not show an antagonistic action | Antagonistic action on the relaxing action of NECA and CPA ([4]; 10 nM): inhibited the relaxing action of NECA and CPA | pA2 value against CPA [4]: 7.0 | pA2 value against NECA [4]: 6.6

CCCn1c(=O)c2[nH]c(C34CC5CC(CC3C5)C4)nc2n(CCC)c1=O [KW3902]
The number of fecal pellets/3 rats (SD IGS rats [5]; 0.3 mg/kg oral, 180 minutes after administration): 10.67 ± 2.08 fecal pellets/3 rats | The number of fecal pellets/3 rats (SD IGS rats [5]; 1 mg/kg oral, 180 minutes): 14.50 ± 1.18 fecal pellets/3 rats | The number of fecal pellets/3 rats (SD IGS rats [5]; 3 mg/kg oral, 180 minutes): 12.83 ± 1.66 fecal pellets/3 rats | Diuretic action (in words) [6]: stronger diuretic action than Compound I | The number of fecal pellets/3 rats (SD IGS rats [7]; KW3902 1 mg/kg together with KW6002 1 mg/kg, 180 minutes): 18.25 ± 1.49 fecal pellets/3 rats | The number of fecal pellets/3 rats (SD IGS rats [7]; KW3902 1 mg/kg without KW6002, 180 minutes): 9.00 ± 1.08 fecal pellets/3 rats

Nc1nc(N)c(-c2ccncc2)c(-c2cccc(F)c2)n1 [Example 1, 6-(3-Flurophenyl)-5-(4-pyridyl)-2,4-pyrimidine diamine]
The number of fecal pellets/3 rats (SD IGS rats [8]; 3 mg/kg oral): 14.83 ± 1.82 fecal pellets/3 rats | The number of fecal pellets/3 rats (SD IGS rats [8]; 10 mg/kg oral): 23.17 ± 2.94 fecal pellets/3 rats

Nc1ncc(-c2ccncc2)c(-c2ccco2)n1 [Compound I, 2-Amino-4-(2-furyl)-5-(4-pyridyl)pyrimidine]
Defecation-promoting action (in words) (SD IGS rats [5]; rats, oral, Table 4): evidently higher defecation-promoting action | Diuretic action (in words) [6]: weaker diuretic action than the A1-selective antagonist KW3902

Cn1c(=O)c2[nH]c(-c3ccccc3)nc2n(C)c1=O [Example 8-PT, 8-phenyltheophylline]
pA2 value of the antagonistic action on the relaxing action of NECA [2]: 6.5 | pA2 value upon inhibition of the action of NECA ([4]; 10 μM): 5.7
